Experimental data reported in patent US10538554B2, “Peptides and uses therefor as antiviral agents” (priority 2015, dated 2020).
Bridge positions count the residues as written; N and C are the ends. Square brackets hold non-standard residues; d marks the D form. Peptide text beside a SMILES is read from it.

Assays:
[1] = system: H1N1 A1/Malaysia/302/1954; details: A1/Malaysia/302/1954, 48 h; for % inhibition H1N1: 500 μM; for % Inhibition: 1 μM
[2] = system: H3N8 A/Miami/2/63; details: A/Miami/2/63, 48 h, 500 μM

| Compound | % inhibition H1N1 [1] [%] | % inhibition H3N8 [2] [%] | % Inhibition [1] [%] |
| --- | --- | --- | --- |
| CSCC[C@H]1NC(=O)[C@@H](Cc2ccccc2)NC(=O)[C@@H](CCCNC(=N)N)NC(=O)[C@@H](CO)NC(=O)[C@@H](CCCCN)NC(=O)[C@@H]([C@H](C)O)NC(=O)[C@H](N)CSSC[C@H](C(=O)O)NC(=O)[C@@H](CC(N)=O)NC1=O [PSP 11, H-ctksrfmnc-OH] (H-[dC][dT][dK][dS][dR][dF][dM][dN][dC]-OH; disulfide 1-9) | 5.8 | 67 | – |
| CC[C@@H](C)[C@H]1NC(=O)[C@@H](Cc2ccccc2)NC(=O)[C@@H](CCCNC(=N)N)NC(=O)[C@@H](CO)NC(=O)[C@@H](CS)NC(=O)[C@@H]([C@H](C)O)NC(=O)[C@H](NC(=O)[C@@H](CCCCN)NC(=O)[C@@H](CCCCN)NC(=O)[C@@H](CCCNC(=N)N)NC(=O)[C@H](N)CCCNC(=N)N)CSSC[C@H](C(=O)O)NC(=O)[C@@H](CC(N)=O)NC1=O [PSP II A2, H-rrkkctcsrfinc-OH] (H-[dR][dR][dK][dK][dC][dT][dC][dS][dR][dF][dI][dN][dC]-OH; disulfide 5-13) | 1.7 | 44.4 | – |
| CC[C@@H](C)[C@H]1NC(=O)[C@@H](Cc2ccccc2)NC(=O)[C@@H](CCCNC(=N)N)NC(=O)[C@@H](CO)NC(=O)[C@@H](CC(N)=O)NC(=O)[C@@H]([C@H](C)O)NC(=O)[C@H](NC(=O)[C@@H](CCCCN)NC(=O)[C@@H](CCCCN)NC(=O)[C@@H](CCCNC(=N)N)NC(=O)[C@H](N)CCCNC(=N)N)CSSC[C@H](C(=O)O)NC(=O)[C@@H](CC(N)=O)NC1=O [PSP II A12, H-rrkkctnsrfinc-OH] (H-[dR][dR][dK][dK][dC][dT][dN][dS][dR][dF][dI][dN][dC]-OH; disulfide 5-13) | 53.8 | 70.6 | – |
| CC[C@@H](C)[C@H]1NC(=O)[C@@H](C)NC(=O)[C@@H]([C@H](C)O)NC(=O)[C@@H](Cc2ccccc2)NC(=O)[C@@H](Cc2c[nH]c3ccccc23)NC(=O)[C@@H](Cc2c[nH]c3ccccc23)NC(=O)[C@H](NC(=O)[C@H](CCCCN)NC(=O)[C@H](CCCCN)NC(=O)[C@H](CCCNC(=N)N)NC(=O)[C@@H](N)CCCNC(=N)N)CSSC[C@H](C(=O)O)NC(=O)[C@@H](C)NC1=O [PSP VII A1, H-RRKKcwwftaiac-OH] (H-RRKK[dC][dW][dW][dF][dT][dA][dI][dA][dC]-OH; disulfide 5-13) | – | – | 25.2 |
| CC[C@@H](C)[C@H]1NC(=O)[C@@H](CS)NC(=O)[C@@H]([C@H](C)O)NC(=O)[C@@H](Cc2ccccc2)NC(=O)[C@@H](Cc2c[nH]c3ccccc23)NC(=O)[C@@H](Cc2c[nH]c3ccccc23)NC(=O)[C@H](NC(=O)[C@H](CCCCN)NC(=O)[C@H](CCCCN)NC(=O)[C@H](CCCNC(=N)N)NC(=O)[C@@H](N)CCCNC(=N)N)CSSC[C@H](C(=O)O)NC(=O)[C@@H](C)NC1=O [PSP VII A2, H-RRKKcwwftciac-OH] (H-RRKK[dC][dW][dW][dF][dT][dC][dI][dA][dC]-OH; disulfide 5-13) | – | – | 11.9 |
| CC[C@@H](C)[C@H]1NC(=O)[C@@H](CC(=O)O)NC(=O)[C@@H]([C@H](C)O)NC(=O)[C@@H](Cc2ccccc2)NC(=O)[C@@H](Cc2c[nH]c3ccccc23)NC(=O)[C@@H](Cc2c[nH]c3ccccc23)NC(=O)[C@H](NC(=O)[C@H](CCCCN)NC(=O)[C@H](CCCCN)NC(=O)[C@H](CCCNC(=N)N)NC(=O)[C@@H](N)CCCNC(=N)N)CSSC[C@H](C(=O)O)NC(=O)[C@@H](C)NC1=O [PSP VII A3, H-RRKKcwwftdiac-OH] (H-RRKK[dC][dW][dW][dF][dT][dD][dI][dA][dC]-OH; disulfide 5-13) | – | – | 9.5 |
| CC[C@@H](C)[C@H]1NC(=O)[C@@H](CCC(=O)O)NC(=O)[C@@H]([C@H](C)O)NC(=O)[C@@H](Cc2ccccc2)NC(=O)[C@@H](Cc2c[nH]c3ccccc23)NC(=O)[C@@H](Cc2c[nH]c3ccccc23)NC(=O)[C@H](NC(=O)[C@H](CCCCN)NC(=O)[C@H](CCCCN)NC(=O)[C@H](CCCNC(=N)N)NC(=O)[C@@H](N)CCCNC(=N)N)CSSC[C@H](C(=O)O)NC(=O)[C@@H](C)NC1=O [PSP VII A4, H-RRKKcwwfteiac-OH] (H-RRKK[dC][dW][dW][dF][dT][dE][dI][dA][dC]-OH; disulfide 5-13) | – | – | 3.8 |
| CC[C@@H](C)[C@H]1NC(=O)CNC(=O)[C@@H]([C@H](C)O)NC(=O)[C@@H](Cc2ccccc2)NC(=O)[C@@H](Cc2c[nH]c3ccccc23)NC(=O)[C@@H](Cc2c[nH]c3ccccc23)NC(=O)[C@H](NC(=O)[C@H](CCCCN)NC(=O)[C@H](CCCCN)NC(=O)[C@H](CCCNC(=N)N)NC(=O)[C@@H](N)CCCNC(=N)N)CSSC[C@H](C(=O)O)NC(=O)[C@@H](C)NC1=O [PSP VII A5, H-RRKKcwwftGiac-OH] (H-RRKK[dC][dW][dW][dF][dT]G[dI][dA][dC]-OH; disulfide 5-13) | – | – | 9.5 |
| CC[C@@H](C)[C@H]1NC(=O)[C@@H](Cc2c[nH]cn2)NC(=O)[C@@H]([C@H](C)O)NC(=O)[C@@H](Cc2ccccc2)NC(=O)[C@@H](Cc2c[nH]c3ccccc23)NC(=O)[C@@H](Cc2c[nH]c3ccccc23)NC(=O)[C@H](NC(=O)[C@H](CCCCN)NC(=O)[C@H](CCCCN)NC(=O)[C@H](CCCNC(=N)N)NC(=O)[C@@H](N)CCCNC(=N)N)CSSC[C@H](C(=O)O)NC(=O)[C@@H](C)NC1=O [PSP VII A7, H-RRKKcwwfthiac-OH] (H-RRKK[dC][dW][dW][dF][dT][dH][dI][dA][dC]-OH; disulfide 5-13) | – | – | 47.1 |
| CC[C@@H](C)[C@H]1NC(=O)[C@@H]([C@H](C)O)NC(=O)[C@@H](Cc2ccccc2)NC(=O)[C@@H](Cc2c[nH]c3ccccc23)NC(=O)[C@@H](Cc2c[nH]c3ccccc23)NC(=O)[C@H](NC(=O)[C@H](CCCCN)NC(=O)[C@H](CCCCN)NC(=O)[C@H](CCCNC(=N)N)NC(=O)[C@@H](N)CCCNC(=N)N)CSSC[C@H](C(=O)O)NC(=O)[C@@H](C)NC(=O)[C@@H]([C@H](C)CC)NC1=O [PSP VII A8, H-RRKKcwwftiiac-OH] (H-RRKK[dC][dW][dW][dF][dT][dI][dI][dA][dC]-OH; disulfide 5-13) | – | – | 84.8 |
| CC[C@@H](C)[C@H]1NC(=O)[C@@H](CCCCN)NC(=O)[C@@H]([C@H](C)O)NC(=O)[C@@H](Cc2ccccc2)NC(=O)[C@@H](Cc2c[nH]c3ccccc23)NC(=O)[C@@H](Cc2c[nH]c3ccccc23)NC(=O)[C@H](NC(=O)[C@H](CCCCN)NC(=O)[C@H](CCCCN)NC(=O)[C@H](CCCNC(=N)N)NC(=O)[C@@H](N)CCCNC(=N)N)CSSC[C@H](C(=O)O)NC(=O)[C@@H](C)NC1=O [PSP VII A9, H-RRKKcwwftkiac-OH] (H-RRKK[dC][dW][dW][dF][dT][dK][dI][dA][dC]-OH; disulfide 5-13) | – | – | 17.4 |
| CC[C@@H](C)[C@H]1NC(=O)[C@@H](CC(C)C)NC(=O)[C@@H]([C@H](C)O)NC(=O)[C@@H](Cc2ccccc2)NC(=O)[C@@H](Cc2c[nH]c3ccccc23)NC(=O)[C@@H](Cc2c[nH]c3ccccc23)NC(=O)[C@H](NC(=O)[C@H](CCCCN)NC(=O)[C@H](CCCCN)NC(=O)[C@H](CCCNC(=N)N)NC(=O)[C@@H](N)CCCNC(=N)N)CSSC[C@H](C(=O)O)NC(=O)[C@@H](C)NC1=O [PSP VII A10, H-RRKKcwwftliac-OH] (H-RRKK[dC][dW][dW][dF][dT][dL][dI][dA][dC]-OH; disulfide 5-13) | – | – | 35.7 |
| CC[C@@H](C)[C@H]1NC(=O)[C@@H](CCSC)NC(=O)[C@@H]([C@H](C)O)NC(=O)[C@@H](Cc2ccccc2)NC(=O)[C@@H](Cc2c[nH]c3ccccc23)NC(=O)[C@@H](Cc2c[nH]c3ccccc23)NC(=O)[C@H](NC(=O)[C@H](CCCCN)NC(=O)[C@H](CCCCN)NC(=O)[C@H](CCCNC(=N)N)NC(=O)[C@@H](N)CCCNC(=N)N)CSSC[C@H](C(=O)O)NC(=O)[C@@H](C)NC1=O [PSP VII A11, H-RRKKcwwftmiac-OH] (H-RRKK[dC][dW][dW][dF][dT][dM][dI][dA][dC]-OH; disulfide 5-13) | – | – | 9.8 |
| CC[C@@H](C)[C@H]1NC(=O)[C@@H](CC(N)=O)NC(=O)[C@@H]([C@H](C)O)NC(=O)[C@@H](Cc2ccccc2)NC(=O)[C@@H](Cc2c[nH]c3ccccc23)NC(=O)[C@@H](Cc2c[nH]c3ccccc23)NC(=O)[C@H](NC(=O)[C@H](CCCCN)NC(=O)[C@H](CCCCN)NC(=O)[C@H](CCCNC(=N)N)NC(=O)[C@@H](N)CCCNC(=N)N)CSSC[C@H](C(=O)O)NC(=O)[C@@H](C)NC1=O [PSP VII A12, H-RRKKcwwftniac-OH] (H-RRKK[dC][dW][dW][dF][dT][dN][dI][dA][dC]-OH; disulfide 5-13) | – | – | 55.2 |
| CC[C@@H](C)[C@H]1NC(=O)[C@H]2CCCN2C(=O)[C@@H]([C@H](C)O)NC(=O)[C@@H](Cc2ccccc2)NC(=O)[C@@H](Cc2c[nH]c3ccccc23)NC(=O)[C@@H](Cc2c[nH]c3ccccc23)NC(=O)[C@H](NC(=O)[C@H](CCCCN)NC(=O)[C@H](CCCCN)NC(=O)[C@H](CCCNC(=N)N)NC(=O)[C@@H](N)CCCNC(=N)N)CSSC[C@H](C(=O)O)NC(=O)[C@@H](C)NC1=O [PSP VII A13, H-RRKKcwwftpiac-OH] (H-RRKK[dC][dW][dW][dF][dT][dP][dI][dA][dC]-OH; disulfide 5-13) | – | – | 41.9 |
| CC[C@@H](C)[C@H]1NC(=O)[C@@H](CCC(N)=O)NC(=O)[C@@H]([C@H](C)O)NC(=O)[C@@H](Cc2ccccc2)NC(=O)[C@@H](Cc2c[nH]c3ccccc23)NC(=O)[C@@H](Cc2c[nH]c3ccccc23)NC(=O)[C@H](NC(=O)[C@H](CCCCN)NC(=O)[C@H](CCCCN)NC(=O)[C@H](CCCNC(=N)N)NC(=O)[C@@H](N)CCCNC(=N)N)CSSC[C@H](C(=O)O)NC(=O)[C@@H](C)NC1=O [PSP VII A14, H-RRKKcwwftqiac-OH] (H-RRKK[dC][dW][dW][dF][dT][dQ][dI][dA][dC]-OH; disulfide 5-13) | – | – | 21.9 |
| CC[C@@H](C)[C@H]1NC(=O)[C@@H](CCCNC(=N)N)NC(=O)[C@@H]([C@H](C)O)NC(=O)[C@@H](Cc2ccccc2)NC(=O)[C@@H](Cc2c[nH]c3ccccc23)NC(=O)[C@@H](Cc2c[nH]c3ccccc23)NC(=O)[C@H](NC(=O)[C@H](CCCCN)NC(=O)[C@H](CCCCN)NC(=O)[C@H](CCCNC(=N)N)NC(=O)[C@@H](N)CCCNC(=N)N)CSSC[C@H](C(=O)O)NC(=O)[C@@H](C)NC1=O [PSP VII A15, H-RRKKcwwftriac-OH] (H-RRKK[dC][dW][dW][dF][dT][dR][dI][dA][dC]-OH; disulfide 5-13) | – | – | 39.1 |
